Tests used:
[1] = biological target: T1, Recombinant human NK3 (hNK3) receptor (Homo sapiens, UniProt P29371); test: NK3 receptor binding, [3H]SR142801 displacement, membrane preparations; settings: second value of the cell pKi NK1/NK3; hNK3 receptor, [3H]SR142801
T1 construct: expressed in transfected cells
T1 sequence (P29371 1-465): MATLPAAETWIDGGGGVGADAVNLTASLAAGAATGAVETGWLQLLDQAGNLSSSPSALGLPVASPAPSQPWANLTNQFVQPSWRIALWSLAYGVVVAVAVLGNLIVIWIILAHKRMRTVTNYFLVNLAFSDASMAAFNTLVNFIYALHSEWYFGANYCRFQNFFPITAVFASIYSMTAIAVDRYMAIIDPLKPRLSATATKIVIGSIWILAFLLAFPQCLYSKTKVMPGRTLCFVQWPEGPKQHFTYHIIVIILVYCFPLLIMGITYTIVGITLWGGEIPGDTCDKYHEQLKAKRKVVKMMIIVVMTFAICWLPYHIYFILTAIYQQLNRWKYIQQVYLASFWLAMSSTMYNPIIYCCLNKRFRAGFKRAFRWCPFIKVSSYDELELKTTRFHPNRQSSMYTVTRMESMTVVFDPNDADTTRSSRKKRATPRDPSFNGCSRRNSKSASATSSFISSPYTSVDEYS
Method: Non specific binding was determined using 10 μM SB222200. Assay buffer consisted of Tris-HCl (50 mM, pH 7.4), BSA (0.1%), MnCl2 (4 mM) and phosphoramidon (1 μM). Membrane preparations of hNK3 receptors (approximately 2.5 μg/well in a 96 well plate) were used to initiate the incubation for 90 min at room temperature. This assay was terminated by rapid filtration under vacuum through GF/C filters, presoaked for 90 min with PEI (0.3%), with 3×0.5 ml washes of ice-cold Tris buffer (50 mM, pH 7.4) containing 0.1% BSA. The radioactivity retained on the filters was measured by scintillation counting. All assays were performed in duplicate in at least two separate experiments.

human NK1 receptor = human NK1 receptor (Homo sapiens, UniProt P25103); test: NK1 receptor binding, [3H]substance P displacement, CHO cell membranes; settings: first value of the cell pKi NK1/NK3; human NK1 receptor, [3H]substance P
Chain of human NK1 receptor (P25103 whole entry): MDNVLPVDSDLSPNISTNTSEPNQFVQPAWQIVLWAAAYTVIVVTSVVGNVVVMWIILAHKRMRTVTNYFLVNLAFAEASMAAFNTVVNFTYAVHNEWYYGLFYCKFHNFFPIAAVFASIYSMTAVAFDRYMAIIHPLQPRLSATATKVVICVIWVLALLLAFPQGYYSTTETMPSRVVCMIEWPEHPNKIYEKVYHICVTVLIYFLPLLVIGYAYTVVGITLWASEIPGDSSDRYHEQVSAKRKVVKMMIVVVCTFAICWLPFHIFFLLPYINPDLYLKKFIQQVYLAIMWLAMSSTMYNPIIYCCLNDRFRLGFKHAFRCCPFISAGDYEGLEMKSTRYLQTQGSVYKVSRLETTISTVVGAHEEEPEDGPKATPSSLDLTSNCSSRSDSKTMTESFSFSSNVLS

| Structure (SMILES) | Ki [1] [nM] | Ki (human NK1 receptor) [nM] |
| --- | --- | --- |
| Cc1ccccc1-c1cc(N2CCC[C@H]2CO)ncc1N(C)C(=O)C(C)(C)c1cc(F)cc(F)c1 [Example 15, (S)-2-(3,5-Difluoro-phenyl)-N-[6-(2-hydroxymethyl-pyrrolidin-1-yl)-4-o-tolyl-pyridin-3-yl]-N-methyl-isobutyramide] | 4.47 | 6.31 |
| Cc1ccccc1-c1cc(N2C[C@H](O)C[C@H]2CO)ncc1N(C)C(=O)C(C)(C)c1cc(F)cc(F)c1 [Example 16, (2S,4R)-2-(3,5-Difluoro-phenyl)-N-[6-(4-hydroxy-2-hydroxymethyl-pyrrolidin-1-yl)-4-o-tolyl-pyridin-3-yl]-N-methyl-isobutyramide] | 4.07 | 2.63 |
| Cc1cc(C)cc(C(C)(C)C(=O)N(C)c2cnc(N3CCC[C@H]3CO)cc2-c2ccccc2C)c1 [Example 19, (S)-2-(3,5-Dimethyl-phenyl)-N-[6-(2-hydroxymethyl-pyrrolidin-1-yl)-4-o-tolyl-pyridin-3-yl]-N-methyl-isobutyramide] | 5.13 | 2.95 |
| Cc1cc(C)cc(C(C)(C)C(=O)N(C)c2cnc(N3C[C@H](O)C[C@H]3CO)cc2-c2ccccc2C)c1 [Example 20, (2S,4R)-2-(3,5-Dimethyl-phenyl)-N-[6-(4-hydroxy-2-hydroxymethyl-pyrrolidin-1-yl)-4-o-tolyl-pyridin-3-yl]-N-methyl-isobutyramide] | 6.17 | 1.15 |
| Cc1cc(F)ccc1-c1cc(NCCO)ncc1N(C)C(=O)C(C)(C)c1cc(Cl)cc(Cl)c1 [Example 21, 2-(3,5-Dichloro-phenyl)-N-[4-(4-fluoro-2-methyl-phenyl)-6-(2-hydroxy-ethylamino)-pyridin-3-yl]-N-methyl-isobutyramide] | 8.71 | 1.29 |
| Cc1cc(F)ccc1-c1cc(N2CCC[C@H]2CO)ncc1N(C)C(=O)C(C)(C)c1cccc(C(F)(F)F)c1 [Example 26, (S)-N-[4-(4-Fluoro-2-methyl-phenyl)-6-(2-hydroxymethyl-pyrrolidin-1-yl)-pyridin-3-yl]-N-methyl-2-(3-trifluoromethyl-phenyl)-isobutyramide] | 5.75 | 3.02 |
| Cc1cc(F)ccc1-c1cc(N2C[C@H](O)C[C@H]2CO)ncc1N(C)C(=O)C(C)(C)c1cccc(C(F)(F)F)c1 [Example 27, (2S,4R)-N-[4-(4-Fluoro-2-methyl-phenyl)-6-(4-hydroxy-2-hydroxymethyl-pyrrolidin-1-yl)-pyridin-3-yl]-N-methyl-2-(3-trifluoromethyl-phenyl)-isobutyramide] | 10.7 | 1.51 |
| Cc1cc(F)ccc1-c1cc(N2CCC[C@H]2CO)ncc1N(C)C(=O)C(C)(C)c1cc(F)cc(F)c1 [Example 28, (S)-2-(3,5-Difluoro-phenyl)-N-[4-(4-fluoro-2-methyl-phenyl)-6-(2-hydroxymethyl-pyrrolidin-1-yl)-pyridin-3-yl]-N-methyl-isobutyramide] | 3.98 | 2.82 |

Stronger by Ki [1], values ahead:

| Ki [1] [nM] | Ki (human NK1 receptor) [nM] | Structure (SMILES) |
| --- | --- | --- |
| 3.55 | 1.55 | Cc1cc(F)ccc1-c1cc(N2C[C@H](O)C[C@H]2CO)ncc1N(C)C(=O)C(C)(C)c1cc(F)cc(F)c1 [Example 29, (2S,4R)-2-(3,5-Difluoro-phenyl)-N-[4-(4-fluoro-2-methyl-phenyl)-6-(4-hydroxy-2-hydroxymethyl-pyrrolidin-1-yl)-pyridin-3-yl]-N-methyl-isobutyramide] |
| 3.55 | 3.72 | COc1cc(Cl)cc(C(C)(C)C(=O)N(C)c2cnc(N3CCC[C@H]3CO)cc2-c2ccc(F)cc2C)c1 [Example 30, (S)-2-(3-Chloro-5-methoxy-phenyl)-N-[4-(4-fluoro-2-methyl-phenyl)-6-(2-hydroxymethyl-pyrrolidin-1-yl)-pyridin-3-yl]-N-methyl-isobutyramide] |
| 3.16 | 3.89 | COc1cc(Cl)cc(C(C)(C)C(=O)N(C)c2cnc(N3CCC[C@H]3CO)cc2-c2ccccc2C)c1 [Example 17, (S)-2-(3-Chloro-5-methoxy-phenyl)-N-[6-(2-hydroxymethyl-pyrrolidin-1-yl)-4-o-tolyl-pyridin-3-yl]-N-methyl-isobutyramide] |
| 2.51 | 1.17 | COc1cc(Cl)cc(C(C)(C)C(=O)N(C)c2cnc(N3C[C@H](O)C[C@H]3CO)cc2-c2ccccc2C)c1 [Example 18, (2S,4R)-2-(3-Chloro-5-methoxy-phenyl)-N-[6-(4-hydroxy-2-hydroxymethyl-pyrrolidin-1-yl)-4-o-tolyl-pyridin-3-yl]-N-methyl-isobutyramide] |
| 1.74 | 0.933 | Cc1cc(F)ccc1-c1cc(N2C[C@H](O)C[C@H]2CO)ncc1N(C)C(=O)C(C)(C)c1cc(F)cc(C(F)(F)F)c1 [Example 25, (2S,4R)-N-[4-(4-Fluoro-2-methyl-phenyl)-6-(4-hydroxy-2-hydroxymethyl-pyrrolidin-1-yl)-pyridin-3-yl]-2-(3-fluoro-5-trifluoromethyl-phenyl)-N-methyl-isobutyramide] |
| 1.66 | 0.977 | COc1cc(Cl)cc(C(C)(C)C(=O)N(C)c2cnc(N3C[C@H](O)C[C@H]3CO)cc2-c2ccc(F)cc2C)c1 [Example 31, (2S,4R)-2-(3-Chloro-5-methoxy-phenyl)-N-[4-(4-fluoro-2-methyl-phenyl)-6-(4-hydroxy-2-hydroxymethyl-pyrrolidin-1-yl)-pyridin-3-yl]-N-methyl-isobutyramide] |
| 1.58 | 0.891 | Cc1cc(F)ccc1-c1cc(N2C[C@H](O)C[C@H]2CO)ncc1N(C)C(=O)C(C)(C)c1cc(Cl)cc(Cl)c1 [Example 23, (2S,4R)-2-(3,5-Dichloro-phenyl)-N-[4-(4-fluoro-2-methyl-phenyl)-6-(4-hydroxy-2-hydroxymethyl-pyrrolidin-1-yl)-pyridin-3-yl]-N-methyl-isobutyramide] |
| 1.55 | 2.19 | Cc1ccccc1-c1cc(N2CCC[C@H]2CO)ncc1N(C)C(=O)C(C)(C)c1cc(F)cc(C(F)(F)F)c1 [Example 13, (S)-2-(3-Fluoro-5-trifluoromethyl-phenyl)-N-[6-(2-hydroxymethyl-pyrrolidin-1-yl)-4-o-tolyl-pyridin-3-yl]-N-methyl-isobutyramide] |
| 1.38 | 1.12 | Cc1ccccc1-c1cc(N2C[C@H](O)C[C@H]2CO)ncc1N(C)C(=O)C(C)(C)c1cc(Cl)cc(Cl)c1 [Example 12, (2S,4R)-2-(3,5-Dichloro-phenyl)-N-[6-(4-hydroxy-2-hydroxymethyl-pyrrolidin-1-yl)-4-o-tolyl-pyridin-3-yl]-N-methyl-isobutyramide] |
| 1.17 | 5.13 | Cc1cc(F)ccc1-c1cc(N2CCC[C@H]2CO)ncc1N(C)C(=O)C(C)(C)c1cc(Cl)cc(Cl)c1 [Example 22, (S)-2-(3,5-Dichloro-phenyl)-N-[4-(4-fluoro-2-methyl-phenyl)-6-(2-hydroxymethyl-pyrrolidin-1-yl)-pyridin-3-yl]-N-methyl-isobutyramide] |
| 0.891 | 1.32 | Cc1cc(F)ccc1-c1cc(N2CCC[C@H]2CO)ncc1N(C)C(=O)C(C)(C)c1cc(F)cc(C(F)(F)F)c1 [Example 24, (S)-N-[4-(4-Fluoro-2-methyl-phenyl)-6-(2-hydroxymethyl-pyrrolidin-1-yl)-pyridin-3-yl]-2-(3-fluoro-5-trifluoromethyl-phenyl)-N-methyl-isobutyramide] |
